From US20190077766A1, “Compositions For APP-Selective BACE Inhibition And Uses Therefor” (NantNeuro, LLC, priority 2015, published 2019)
Where “and” joins values, the source holds several entries; their conditions need not be identical. Equal values may be shown once. Where a name gives a salt, the structure may show the parent alone. Read-outs that look alike come from different tables or passages of the source.

Legend:
[1] = target: T1, BACE1 (Homo sapiens, UniProt P56817); experiment: in vitro BACE inhibition assay (Primary BACE1 IC50); type: biochemical
T1 construct: purchased R&D 931-AS-050
T1 sequence (P56817 46-457 limits assumed): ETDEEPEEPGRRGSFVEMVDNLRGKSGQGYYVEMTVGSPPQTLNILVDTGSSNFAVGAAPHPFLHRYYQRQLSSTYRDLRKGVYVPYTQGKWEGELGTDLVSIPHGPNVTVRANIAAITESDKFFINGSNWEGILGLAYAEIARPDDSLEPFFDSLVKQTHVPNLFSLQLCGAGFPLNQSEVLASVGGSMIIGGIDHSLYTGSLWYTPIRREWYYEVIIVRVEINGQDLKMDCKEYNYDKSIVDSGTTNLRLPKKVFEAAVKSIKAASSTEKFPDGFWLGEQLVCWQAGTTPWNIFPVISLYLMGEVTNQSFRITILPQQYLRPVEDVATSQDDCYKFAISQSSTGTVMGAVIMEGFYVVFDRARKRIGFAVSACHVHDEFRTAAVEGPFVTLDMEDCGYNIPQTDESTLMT
From the text: (§1) ABBI Assay: APP Binding BACE Inhibitor (ABBI) activity of any of the compounds described herein can readily be verified using, for example, assays described herein. Basically, in certain embodiments a pair the assays are utilized to identify ABBI compounds that inhibit BACE cleavage of the MBP-C125 APP substrate, resulting in the inhibition of the production of C99 and the β-site peptide substrate (P5-P5′) and also interacts with APP, for example, as measured by surface plasmon resonance (SPR) analysis. In one illustrative embodiment, an MBP-C125 APP695 wt fusion protein can be used as one of the substrates and the second substrate can be the commercially available P5-P5′ fluorescence substrate.

[2] = target: T2, APP (Homo sapiens, UniProt P05067); experiment: APP binding (APP Kd), surface plasmon resonance
T2 construct: made in house
T2 sequence (P05067 230-624 isoform P05067-4): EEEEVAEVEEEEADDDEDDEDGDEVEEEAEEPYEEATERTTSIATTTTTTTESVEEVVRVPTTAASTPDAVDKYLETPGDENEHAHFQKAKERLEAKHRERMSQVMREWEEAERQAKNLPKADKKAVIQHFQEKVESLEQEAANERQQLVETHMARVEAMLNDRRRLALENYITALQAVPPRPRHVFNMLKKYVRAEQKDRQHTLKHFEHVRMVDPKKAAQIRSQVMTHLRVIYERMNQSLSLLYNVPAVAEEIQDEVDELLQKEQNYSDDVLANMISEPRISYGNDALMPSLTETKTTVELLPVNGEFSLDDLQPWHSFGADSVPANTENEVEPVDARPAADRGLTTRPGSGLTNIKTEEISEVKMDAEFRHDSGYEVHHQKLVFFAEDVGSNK
From the text: as §1, with “substrate. […]” for “substrate.”

[3] = solubility (Sol); type: physicochemical; settings: Table 3; in words
[4] = pharmacokinetics, brain level (Cmax brain); type: in vivo
From the text: As is readily apparent, not all compounds were equally able to cross the blood brain barrier, but most compounds did reach pharmacologically meaningful levels given their low IC50 values. FIG. 5A provides a further exemplary compound (FAH65) and FIG. 5B depicts dose response data for Aβ1-42 production in a cell based system. Further shown are effects observed with regard to Aβ1-42 production, sAPPβ and sAPPα formation. […] Here, data are presented for oral and subcutaneous administration (SQ) at dosages of 10- and 30 mg/kg. […] Once more, it should be noted that these exemplary compounds are preferential towards APP in BACE inhibition as can be taken from the data for Aβ1-42, sAPPβ, and sAPPα formation.

[5] = tested on: CHO-7W cells that were stably transfected with human APP (wildtype); experiment: Secondary cell-based APP processing assay (sAPPalpha, sAPPbeta, Abeta 1-42); settings: for Aβ1-42 peptide formation / production: cell based; for preference (selectivity) towards APP in BACE inhibition: from Aβ1-42, sAPPβ and sAPPα formation
From the text: Cellular Assays: Numerous cell-based assays can be used to evaluate the activity of agent(s) of interest on relative alpha-secretase activity to beta-secretase activity and/or processing of APP to release amyloidogenic versus non-amyloidogenic oligomers.
Human cell lines that normally process Aβ from APP provide a useful means to assay inhibitory activities of the agent(s). Production and release of Aβ and/or other cleavage products into the culture medium can be measured, for example by immunoassay, such as Western blot or enzyme-linked immunoassay (EIA) such as by ELISA.
Relative activity of the alpha-secretase to the beta-secretase can be measured by analysis of one or more cleavage products of the APP substrate. For example, inhibition of beta-secretase activity against the substrate APP would be expected to decrease release of specific beta-secretase induced APP cleavage products such as Aβ (e.g., Aβ40 or Aβ42), sAPPβ and APPneo. Promotion or enhancement of alpha-secretase activity against the substrate APP would be expected to increase release of specific alpha-secretase induced APP cleavage products such as sAPPα and p3 peptide.
In such assays, for example, the cells expressing APP, alpha-secretase and/or beta-secretase are incubated in a culture medium under conditions suitable for alpha-secretase and/or beta-secretase enzymatic activity at its cleavage site on the APP substrate. On exposure of the cells to the agent(s), the amount of Aβ released into the medium and/or the amount of CTF99 fragments of APP in the cell lysates is reduced as compared with the control. The cleavage products of APP can be analyzed, for example, by immune reactions with specific antibodies, as discussed above.

[6] = PAMPA parallel artificial membrane permeability assay; type: in vitro ADME; settings: Table 4
[7] = Tables 1 and 2, read-out: Primary BACE1 IC50
[8] = Table 4, several values in a cell = several determinations, read-out: BACE1 IC50
[9] = Table 2, one cell for the whole line

Row | IC50 [1, 7] [nM] | IC50 [1, 8] | SMILES | other results
1 | 2000 | – | Cc1cc(C2(c3cnn(C)c3)N=C(N)N(C)C2=O)ccc1OC(F)F (stereo not shown) [30 HCl] | –
2 | – | 2670 nM and 4700 nM | CN1C(=O)C(c2ccccc2)(c2cc(F)cc(F)c2)N=C1N (stereo not shown) [FAH-01] | –
3 | – | 2130 nM and 9200 nM | CN1C(=O)C(c2ccc(OC(F)F)cc2)(c2cc(F)cc(F)c2)N=C1N (stereo not shown) [FAH-02] | –
4 | – | 2230 nM and 3500 nM | CN1C(=O)C(c2cc(F)cc(F)c2)(c2cccc(OC(F)F)c2)N=C1N (stereo not shown) [FAH-04] | –
5 | – | 6460 nM | Cc1cc(C)cc(C2(c3cc(F)cc(F)c3)N=C(N)N(C)C2=O)c1 (stereo not shown) [FAH-05] | –
6 | – | 600 nM and 4100 nM | COc1ccc(C2(c3cc(F)cc(F)c3)N=C(N)N(C)C2=O)cc1C (stereo not shown) [FAH-06] | –
7 | – | 2300 nM | COc1ccc(C2(c3ccc(F)cc3F)N=C(N)N(C)C2=O)cc1C (stereo not shown) [FAH-08] | –
8 | – | 1400 nM | COc1ccc(C2(c3cc(C)c(F)cc3F)N=C(N)N(C)C2=O)cc1C (stereo not shown) [FAH-09] | –
9 | – | 1600 nM | Cc1cc(C2(c3cc(F)cc(F)c3)N=C(N)N(C)C2=O)ccc1F (stereo not shown) [FAH-10] | –
10 | – | 1800 nM | COc1ccc(C2(c3cc(F)cc(F)c3)N=C(N)N(C)C2=O)cn1 (stereo not shown) [FAH-11] | –
11 | – | 2600 nM | COc1ccc(C2(c3cc(F)cc(F)c3)N=C(N)N(C)C2=O)cc1F (stereo not shown) [FAH-12] | –
12 | – | 1500 nM | CN1C(=O)C(c2cc(F)cc(F)c2)(c2ccc(F)c(F)c2)N=C1N (stereo not shown) [FAH-14] | –
13 | – | 2000 nM | CN1C(=O)C(c2cc(F)cc(F)c2)(c2ccnc(F)c2)N=C1N (stereo not shown) [FAH-15] | –
14 | – | 960 nM | Cc1cc(C2(c3cc(F)c(F)c(F)c3)N=C(N)N(C)C2=O)ccc1OC(F)F (stereo not shown) [FAH-19] | –
15 | – | – | Cc1cc(F)cc(C2(c3ccc(OC(F)F)c(C)c3)N=C(N)N(C)C2=O)c1 (stereo not shown) [FAH-22] | sAPPbeta ([5]; Secondary (1st test, n = 3), ↓ = decrease): ↓>20%
16 | 320 | 320 nM | Cc1cc(C2(c3cccc(Cl)c3)N=C(N)N(C)C2=O)ccc1OC(F)F (stereo not shown) [FAH-23] | –
17 | 570 | 570 nM | Cc1cc(C2(c3cc(F)cc(Cl)c3)N=C(N)N(C)C2=O)ccc1OC(F)F (stereo not shown) [FAH-25] | –
18 | 130 | 130 nM | Cc1cccc(C2(c3ccc(OC(F)F)c(C)c3)N=C(N)N(C)C2=O)c1 (stereo not shown) [FAH-27] | –
19 | 380 | 380 nM | Cc1cc(C2(c3cccc(C(F)(F)F)c3)N=C(N)N(C)C2=O)ccc1OC(F)F (stereo not shown) [FAH-28] | –
20 | – | 11000 nM | Cc1cc(C2(c3cccc(C(C)C)c3)N=C(N)N(C)C2=O)ccc1OC(F)F (stereo not shown) [FAH-29] | –

Row | IC50 [1, 7] [nM] | IC50 [1, 8] | SMILES | other results
21 | – | 2000 nM | Cc1cc(C2(c3cnn(C)c3)N=C(N)N(C)C2=O)ccc1OC(F)F (stereo not shown) [FAH-30] | –
22 | 70 | 70 nM and 50 nM | Cc1cc(C2(c3cccc(-c4cccnc4)c3)N=C(N)N(C)C2=O)ccc1OC(F)F (stereo not shown) [FAH-32] | Sol [3]: Sol: good; sAPPα formation ([5]; in words, FIG. 1D): increased sAPPα formation as compared to FAH17; sAPPβ formation ([5]; in words, FIG. 1D): reduced as compared to FAH17; Aβ1-42 peptide formation / production ([5]; in words): substantially reduced; preference (selectivity) towards APP in BACE inhibition ([5]; in words): higher selectivity of FAH32 towards APP; IC50 ([1]; Table 3, read-out: IC50): ~60 nM; Cmax brain ([4]; 10 mg/kg 5Q): <0.02 µM
23 | 5300 | – | Cc1cc(C2(c3cncc(F)c3)N=C(N)N(C)C2=O)ccc1OC(F)F (stereo not shown) [FAH-37] | Sol [3]: good; IC50 ([1]; Table 3, read-out: IC50): ~5300 nM; reducing BACE activity in vitro ([1]; in words, FIG. 2B): less effective; Cmax brain ([4]; (IP), no unit in the cell, neighbours μM): ~0.11 (IP)
24 | > 10000 | 15300 nM | Cc1cc(C2(c3cocn3)N=C(N)N(C)C2=O)ccc1OC(F)F (stereo not shown) [FAH-38] | Secondary (sAPPalpha, sAPPbeta, sAPP(α/β), Abeta 1-42, sAPPa/Aβ) [5, 9]: unchanged
25 | – | 2300 nM and 2700 nM | Cc1cc(C2(c3cccc(F)c3)N=C(N)N(Cc3ccccc3)C2=O)ccc1OC(F)F (stereo not shown) [FAH-42] | –
26 | 1200 | 1600 nM | Cc1cc(C2(c3ccnc(F)c3)N=C(N)N(C)C2=O)ccc1OC(F)F (stereo not shown) [FAH-46] | Sol [3]: good; IC50 ([1]; Table 3, read-out: IC50): ~1200 nM; Cmax brain ([4]; 10 mg/kg 5Q): ~0.3 µM; Cmax brain ([4]; 30 mg/kg): 1.3 μM @ 30 mL
27 | 1400 | 1400 nM | Cc1cc(C2(c3ccc(OC(F)F)c(C)c3)N=C(N)N(C)C2=O)ccn1 (stereo not shown) [FAH-47] | –
28 | 4800 | 4800 nM | COc1cc(C2(c3ccc(OC(F)F)c(C)c3)N=C(N)N(C)C2=O)ccn1 (stereo not shown) [FAH-48] | –
29 | 2000 | 1900 nM | COCc1cc(C2(c3ccc(OC(F)F)c(C)c3)N=C(N)N(C)C2=O)ccn1 (stereo not shown) [FAH-53] | –
30 | – | 240 nM | CC#Cc1cc(C2(c3ccc(OC(F)F)c(C)c3)N=C(N)N(C)C2=O)ccn1 (stereo not shown) [FAH-57] | –
31 | 1500 | 1500 nM and 750 nM | Cc1cc(C2(C3CCCCC3)N=C(N)N(C)C2=O)ccc1OC(F)F (stereo not shown) [FAH-59] | Toxicity in secondary cell assay [5, 9]: Toxic
32 | 600 | 370 nM | CNCc1cccc(C2(c3ccc(OC(F)F)c(C)c3)N=C(N)N(C)C2=O)c1 (stereo not shown) [FAH-62] | Sol [3]: excellent; IC50 ([1]; Table 3, read-out: IC50): ~60 nM
33 | – | 1180 nM | CNCCc1cccc(C2(c3ccc(OC(F)F)c(C)c3)N=C(N)N(C)C2=O)c1 (stereo not shown) [FAH-63] | PAMPA [6]: 0.36
34 | – | – | Cc1cc(C2(c3cc(-c4cccnc4)ccn3)N=C(N)N(C)C2=O)ccc1OC(F)F (stereo not shown) [FAH-65] | Aβ1-42 peptide formation / production ([5]; in words): strongly reduces; preference (selectivity) towards APP in BACE inhibition ([5]; in words): clear preference towards APP
35 | – | 870 nM | Cc1cc(C2(c3cccc(-c4ccccc4)c3)N=C(N)N(C)C2=O)ccc1OC(F)F (stereo not shown) [FAH-73] | –
36 | – | 10 nM | CN1C(=O)C(c2ccc(OC(F)F)cc2)(c2cccc(-c3cncnc3)c2)N=C1N (stereo not shown) [FAH-74] | IC50 ([1]; in vitro BACE inhibition assay, FIG. 8, read-out: IC50): 9 nM
37 | – | 2730 nM | Cc1cc(C2(c3ccncc3)N=C(N)N(C)C2=O)ccc1OC(F)F (stereo not shown) [FAH-78] | –
38 | – | 17600 nM | Cc1cc(C2(C3CCNCC3)N=C(N)N(C)C2=O)ccc1OC(F)F (stereo not shown) [FAH-79] | –
39 | – | 1670 nM | CCCc1cc(C2(c3ccc(OC(F)F)c(C)c3)N=C(N)N(C)C2=O)ccn1 (stereo not shown) [FAH-80] | –
40 | – | 14900 nM | CCCC1CC(C2(c3ccc(OC(F)F)c(C)c3)N=C(N)N(C)C2=O)CCN1 (stereo not shown) [FAH-81] | –

Row | SMILES | IC50 [1, 7] [nM] | IC50 [1, 8] | other results
41 | Cc1cc(C2(c3cc(F)cc(F)c3)N=C(N)N(C)C2=O)ccc1OC(F)F (stereo not shown) [FAH-03] | 530 | – | Kd [2]: ~300 nM
42 | Cc1cc(C2(c3cccc(F)c3)N=C(N)N(C)C2=O)ccc1OC(F)F (stereo not shown) [FAH-17] | 150 | – | Sol [3]: med; IC50 ([1]; Table 3, read-out: IC50): ~100 nM; Cmax brain ([4]; 10 mg/kg 5Q): ~0.3 µM
43 | Cc1cc(C2(c3cncnc3)N=C(N)N(C)C2=O)ccc1OC(F)F (stereo not shown) [FAH-33] | 10000 | 10000 nM | –
44 | COCc1cccc(C2(c3ccc(OC(F)F)c(C)c3)N=C(N)N(C)C2=O)c1 (stereo not shown) [FAH-44] | 300 | 300 nM and 50 nM | Sol [3]: med; sAPPalpha ([5]; Secondary (1st test, n = 3), ↑ = increase): ↑>10%; IC50 ([1]; Table 3, read-out: IC50): ~25 nM; Cmax brain ([4]; 10 mg/kg 5Q): ~0.2 µM
